Data on 1 compound can be found in US20260193229A1, “BRISC DEUBIQUITINATING ENZYME INHIBITORS” (THE TRUSTEES OF THE UNIVERSITY OF PENNSYLVANIA, priority 2022, published 2026).

What all share (assay type): biochemical
The target of one assay is T1, BRISC (Homo sapiens, UniProt P46736+Q15018).
T1 construct: made in house; host or cells: insect cells (MultiBac baculovirus)
Nature of the assay: BRISC DUB inhibition assay with quenched K63-linked di-ubiquitin substrate (TAMRA fluorescence). As to conditions: Table 1, Activity Range Table. On the procedure:
High throughput screening. A baculoviral expression system was established to purify milligram quantities of the entire BRISC complex from insect cells. The MultiBac system was used to clone all 4 components of the BRISC complex into one vector which was then packaged into the baculovirus genome using the methods described in Zeqiraj et al., 2015 (Mol. Cell).
The assay buffer included: 50 mM HEPES-NaOH, pH 7.0; 100 mM NaCl; 1 mM DTT; 1 mg/ml BSA; and 0.03% Brij-35. BRISC was assayed at 1 nM (final concentration) with the substrate at 500 nM (final concentration). The final reaction volume was 20 μl in each 384 plate well (Corning, #3573; black, low flange, flat bottom) with a final concentration of compounds of 10 μM.
A 5 ml of enzyme solution with BRISC at 2 nM in assay buffer was made by adding 10 μl of BRISC working stock (1 μM) to 5 ml of assay buffer. A 5 ml of substrate solution was made with […] of K63-diUbiquitin (made in-house) plus […] of IQF K63-diUbiquitin by adding the appropriate volumes of diUbiquitins to 5 ml of assay buffer. 45 μL of BRISC (enzyme solution) was dispensed into columns 1-11 of a 96 well PCR plate (skirted). Buffer was only dispensed in column 12 (no enzyme control). 45 μl of substrate solution was dispensed into columns 1-12 of a 96 well PCR plate (skirted). The plate was spun down at 3000 rpm (bench top centrifuge) at room temp for 2 min to remove any air bubbles. Using a Biomek FX, liquid handler (Bekman), 10 μl of BRISC (enzyme solution) was dispensed into the 4 quadrants of a 384 well plate. 200 nl of compounds was dispensed into each well of the 384 plates using the pin tool (columns A and B usually contain DMSO only, and serve as controls), and the plates were incubated for 10-15 minutes at room temperature. 10 μl of substrate solution was dispensed into the 4 quadrants of the 384 well plate. The plate was then incubated for 30 min at room temperature in the dark and read with settings suitable for detecting TAMRA fluorescence (excitation wavelength of 540 nm and emission wavelength of 580 nm). A PHERAStar plate (BMG labtech) reader was used with a gain value of 570. The Intensity/Background (I/Bg), defined as [(Average of columns 1 and 2; DMSO controls)/(Average of columns 23 and 24; no enzyme controls)], were about 5.
The activities of the compounds disclosed in the present disclosure in inhibiting BRCC36 enzyme activity was measured in accordance with the method disclosed in Example 2.

The target in another assay is T2, USP2 (Homo sapiens, UniProt O75604).
T2 sequence (O75604 1-605): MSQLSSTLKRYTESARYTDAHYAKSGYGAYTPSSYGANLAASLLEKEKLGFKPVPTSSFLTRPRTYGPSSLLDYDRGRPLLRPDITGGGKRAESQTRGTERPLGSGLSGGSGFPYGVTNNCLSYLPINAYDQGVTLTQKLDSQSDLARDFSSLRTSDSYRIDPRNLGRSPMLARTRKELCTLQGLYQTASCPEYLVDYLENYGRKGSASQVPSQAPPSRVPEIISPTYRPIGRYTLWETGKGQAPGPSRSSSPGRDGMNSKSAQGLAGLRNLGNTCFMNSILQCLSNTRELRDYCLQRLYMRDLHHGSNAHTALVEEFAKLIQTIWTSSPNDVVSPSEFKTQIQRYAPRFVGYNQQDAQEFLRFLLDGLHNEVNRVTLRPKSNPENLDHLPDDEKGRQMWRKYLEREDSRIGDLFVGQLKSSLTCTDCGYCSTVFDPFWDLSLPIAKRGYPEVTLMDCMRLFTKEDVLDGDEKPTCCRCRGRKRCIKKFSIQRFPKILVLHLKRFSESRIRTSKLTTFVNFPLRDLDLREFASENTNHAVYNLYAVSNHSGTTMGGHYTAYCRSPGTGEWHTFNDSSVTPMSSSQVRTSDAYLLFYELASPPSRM
Nature of the assay: Selectivity counter-assay against USP2. As to conditions: FIG. 6C / 7A.

The next assay relates to trypsin. Kind of assay: Selectivity counter-assay against trypsin. As to conditions: FIG. 6C / 7A.
Assay [1] concerns the target ARISC (BRCC36-Abraxas-BRCC45-MERIT40) (Homo sapiens, UniProt P46736). Kind of assay: Cross-reactivity against ARISC holoenzyme. As to conditions: FIG. 7A.
Assay [2] deals with RAP80 (BRCC36-Abraxas-BRCC45-MERIT40-RAP80) complex (Homo sapiens, UniProt P46736). Kind of assay: Cross-reactivity against RAP80 holoenzyme. The following applies: FIG. 7A.
The next assay has as its target T3, BRCC36 enzyme activity (Homo sapiens, UniProt P46736+Q15018).
T3 construct: made in house; host or cells: insect cells (MultiBac baculovirus)
Nature of the assay: Mode of inhibition: increasing di-Ubiquitin substrate and free Zn2+.

`O=C(NC1CCNCC1)c1nn(C(=O)c2c(Cl)cccc2Cl)cc1NC(=O)c1c(Cl)cccc1Cl` [Compound 1, 4-(2,6-dichlorobenzamido)-1-(2,6-dichlorobenzoyl)-N-(piperidin-4-yl)-1H-pyrazole-3-carboxamide]: at BRISC, the IC50 fell in the range of 1 to 10 µM. On USP2, the “selectivity for BRISC versus USP2” value was “selectivity for BRISC”. Further, the “selectivity for BRISC versus trypsin” value in the assay with trypsin is reported as “selectivity for BRISC”. In addition, the “cross reactivity to ARISC holoenzyme” value in assay [1] is “no significant cross reactivity”. In addition, the “cross reactivity to RAP80 holoenzyme” value in assay [2] was “no significant cross reactivity”. Also, on BRCC36 enzyme activity, the mode of inhibition entry was “non-competitive inhibitors”.

A word on the IC50: it is the concentration at which inhibition is half-maximal.
